According to patent publication US10874685B2, “Pancreatic cancer therapy and diagnosis” (Deutsches Krebsforschungszentrum Stiftung des Öffentlichen …, priority 2014, dated 2020):
“Also recorded” adds a separate entry of the source.

How the values were obtained:
[1] = tested on: pancreatic cancer cell lines (PANC-1, CFPAC-1, CAPAN-1, MIAPaCa-2, BXPC-3); test: Sulforhodamine B (SRB) cytotoxicity assay on pancreatic cancer cell lines; type: cell-based, human; details: increasing concentration, 72 h
Description: PANC-1, CFPAC-1, CAPAN-1, MIAPaCa-2, BXPC-3 and fibroblast cells were seeded for 24 h and were exposed to increasing concentration of Pimozide and vehicle for 72 h (FIG. 3A). The same procedure was followed for treatment of cancer cell lines with L741 (FIG. 3B). Cell viability was characterized using a SRB assay. Values are the mean+/−SD of six independent experiments.
Five pancreatic ductal cancer cell lines with various degree of differentiation were obtained from American Type Culture Collection (Rockville, USA) and Normal Human Dermal Fibroblasts (NHDF) obtained from PromoCell. BXPC-3 (moderately differentiated) as well as poorly differentiated human pancreatic cancer cell lines, PANC-1 and MIAPaCa-2, have been established from primary tumor. AsPC-1, CAPAN-1 and CFPAC-1 which represent well differentiated cell lines was isolated from ascites and liver metastasis of pancreas adenocarcinoma. All cell lines contain mutation in P53 whereas K-ras mutation reported in all with the exception of BxPc3. BRCA2 mutation just reported in CAPAN-1 cells.
Sulforhodamine B sodium salt (sigma) was used to assess cell viability and IC50 determination of pancreatic cancer cells. […] Cell viability was specified by using plate reader (TECAN) with measuring of absorbance at 570 and 650 nm (background) in treated or untreated 96 well plate.

PANC-1 cells = test: Wound healing (scratching) assay for cell migration; type: cell-based, human; details: PANC-1, increasing concentrations, 10 h
Description: PANC-1 cells were plated in the chamber were already attached in 12 well plate and allowed to grow for 24 h. Then, a wound was made in the confluent monolayer by removing the chamber. Cells were exposed to increasing concentration of Pimozide (FIG. 6A) or L741 (FIG. 6B) and vehicle for 10 h. Wound gap closure was measured for each drug concentration by comparing the gap at time 0 h to the one at the time 10 h when the gap closed in negative control and normalized to untreated condition.
PANC-1 cells were seeded into the 35 mm-dish culture-silicon Insert frames from Ibidi where already attached to the 6 well culture plate. When 96-98% confluency was achieved, the insert frames were removed using sterile forceps to reach cell free gap. To create a reference point for subsequent measurements, three different part of the gap was marked on the underside of the plastic. Floating cells and cell debris were washed using PBS, relative culture medium was added to each wells and migration distance was photographed using a Zeiss Axiovert 24 light microscope at zero time in the marked areas. Afterward, the wells were treated by addition of DMSO as control and different increasing concentration of Pim and L741. Plates were then placed into the incubator and the cells were allowed to migrate until the time when the gap for the […] closed (t time). Images were taken from the marked areas again. This assay was performed employing various concentrations of drugs at which maximum 5% viability inhibition was observed after 10 h treatment.

[2] = tested on: KPC-023, KPC-01 and KPC-LM pancreatic cancer cell lines; test: Viability of primary and metastatic pancreatic cancer cell lines isolated from KPC mice; type: cell-based; details: primary (KPC-023, KPC-01) and metastatic (KPC-LM) lines
MIAPaCa-2 cells = test: Orthotopic pancreatic tumor mouse model treated with DRD2 antagonists; type: in vivo, mice; details: compared to vehicle
Description: Two million MIAPaCa-2 cells were resuspended in 10 μL Matrigel (BD Biosciences, San Jose, Calif.) were orthotopically implanted into the tail of the pancreas of 6-week-old Nod scid gamma animals (Jackson Labs, Bar Harbor, Me.) (day 1). When tumors were palpable (day 27), mice were randomized into 2 groups (n=7 in control group and n=9 in haloperidol group) and injected intraperitoneally with either haloperidol (10 mg/kg) or solvent (dimethylsulfoxide [DMSO] control group) for 12 days. The experiment was terminated when control mice appeared moribund. Weight of the animal and final tumor weight and volume were measured.

[3] = tested on: MIAPaCa-2, PANC-1 and AsPC-1 cells; test: Glucose uptake measurement (labelled 2-DG) in PDAC cell lines; type: cell-based, human; details: all three cell lines; relative to DMSO control
Source text: (§1) Measurement of 2-deoxy-D-glucose uptake shown on the y-axis relative to control by PDAC cell lines (MIAPaCa2, left; PANC-1, middle; AsPC1, right) treated with DMSO (C), pimozide (P) or haloperidol (H) (FIG. 10A). Abundance of free cholesterol, as measured by staining with filipin, after treatment with haloperidol (H) or pimozide (P) in PDAC cell lines (MIAPaCa2, left; PANC-1, middle; AsPC1, right) (FIG. 10B top). Representative micrographs of filipin-labelled cholesterol. PDAC (MIAPaCa2, top; PANC-1, middle; AsPC1, bottom) cells were seeded for 24 hours and treated with 10 μM haloperidol (H) or pimozide (P) or DMSO for 18 hours (FIG. 10B bottom). Red-fluorescence represents propidium iodide (PI)-stained nuclei and blue-fluorescence represents filipin-stained cholesterol. mRNA levels of genes relative to R-actin shown on the y-axis involved in cholesterol biosynthesis (from left to right: SREBP1, SREBP2, INSIG1, HMGCR, LDLR) measured by qRT-PCR 18 hours post-treatment with DMSO (C), haloperidol (H) or pimozide (P) in three PDAC cell lines (MIAPaCa2, top; PANC-1, middle; AsPC1, bottom) (FIG. 10C).
The induction effect of pimozide or haloperidol on labeled 2-DG uptake in cancer cells were determined from measurement of the fluorescence intensity of cell lysates. […]

[4] = tested on: MIAPaCa-2, PANC-1 and AsPC-1 cells; test: Free cholesterol measurement (Filipin staining) in PDAC cell lines; type: cell-based, human; details: 10 μM, 18 hours; vs DMSO
Source text: as §1
Cancer cells were seeded for 24 hours and treated with pimozide, haloperidol or DMSO for 18 hours. The cells were fixed with paraformaldehyde, stained with Filipin™ and propidium iodide (PI), and photographed. Filipin™ is a fluorescent polyene antibiotic that binds to free cholesterol. […]

[5] = tested on: SREBP1, SREBP2, INSIG1, HMGCR, LDLR mRNA; test: qRT-PCR of cholesterol biosynthesis genes in PDAC cell lines; type: cell-based, human; details: qRT-PCR 18 hours post-treatment; relative to actin
Source text: as §1
For mice xenograft tissue samples and cultured cells, the miRNeasy kit (Qiagen, Valencia, Calif.) was used to extract total RNA. […] Quantification values were calculated according to a standard curve method created from a dilution series. […]

[6] = tested on: PANC-1, MIAPaCa-2 and AsPC-1 cell lines; test: PDAC cell line growth curves under combination therapy; type: cell-based, human; details: over time
Source text: FIGS. 11A and 11B show PDAC cell line growth curves following combination therapy with DRD2 antagonists, 2-deoxy-D-glucose, and atorvastatin. Percentage cell growth shown on the y-axis following treatment with control (blue line), pimozide (Pim, gray line), atorvastatin and 2-deoxy-D-glucose (ATR+2-DG, red line) and combination of Pim and ATR+2-DG (green line) over time in PANC-1 (top), MIAPaCa-2 (middle) and AsPC-1 (bottom) cell lines (FIG. 11A). Haloperidol (Hal, gray line) is used as the DRD2 antagonist for use alone or in combination with ATR+2-DG as described in A (FIG. 11B). Dosage are indicated for each cell line.
PDAC cell proliferation was measured during pharmacological inhibition of DRD2 alone and in combination with blockade of glycolysis and cholesterol synthesis. To suppress glycolysis, 2-DG, a glucose analog which is a competitor inhibitor of glucose metabolism, was used. To inhibit cholesterol synthesis, atorvastatin (ATR), a competitive inhibitor of 3-hydroxy-3-methylglutaryl-coenzyme A (HMG-CoA) reductase in the cholesterol biosynthesis pathway was used.

MIAPaCa-2 xenograft = test: Combination therapy in NSG mice, MIAPaCa-2 xenograft model; type: in vivo; details: i.p. 16 days; pimozide 10 mg/kg daily; gemcitabine 20 mg/kg every 4 days
Source text: Tumor volumes normalized to initial measurement shown in the y-axis every four days following treatment with either vehicle (gray line), the chemotherapeutic gemcitabine (green line), a combination therapy of 2-deoxy-D-glucose, atorvastatin and pimozide (2DG+ATR+Pim, redline), or a combination therapy of 2DG+ATR+Pim and gemcitabine (2DG+ATR+Pim+Gem, red dashed line) (FIG. 12A). […] Tumor weight (FIG. 12C) and volume of samples (FIG. 12D) harvested following treatment with, from left to right, control (Vehicle), 2DG+ATR, Pim alone, Pim+2DG+ATR, Gem alone, 2DG+ATR+Gem, Pim+Gem, or Pim+2DG+ATR+Gem.
NOD severe combined immunodeficiency gamma (NSG) mice were subcutaneously injected in the right flank with five million MIAPaCa-2 cells. Once tumors were detectable (200 mm^3), mice were randomized into 8 groups (5 in each group) and treated through intraperitoneal injection as indicated for 16 days. All drugs were given every day whereas gemcitabine was given every 4 days, alone or in combination. Experiment was terminated when control animals became moribund. The growth of tumors was measured every 4 days. Tumors were harvested and photographed. Tumor weights and volumes were measured.
The efficacy of the combined treatment approach was investigated using a MIAPaCa-2 xenograft model of pancreatic cancer.

[7] = tested on: locally advanced, unresectable, or metastatic pancreatic adenocarcinoma; details: patients with locally advanced; cited from earlier work
pituitary tumor cells = details: after treatment; cited from earlier work

SMILES: OC1(c2ccc(Cl)cc2)CCN(Cc2c[nH]c3ccccc23)CC1 [L-741,626]
- cell viability of pancreatic cancer cell lines [1]: Specific toxicity effect; also recorded: dose dependent toxicity effect
- tumor cell migration (wound gap closure) (PANC-1 cells): tumor cell migration was affected
- tumor cell migration (wound gap closure) (PANC-1 cells; listed as L741): dose dependent inhibitory effect
- viability of KPC mouse pancreatic cancer cell lines [2]: sensitive; also recorded: Dose-dependent effects

SMILES: O=C(CCCN1CCC(O)(c2ccc(Cl)cc2)CC1)c1ccc(F)cc1 [haloperidol]
- metastatic dissemination (MIAPaCa-2 cells): reduces tumor volume, metastasis
- tumor volume (MIAPaCa-2 cells; haloperidol 10 mg/kg intraperitoneally for 12 days): reduces tumor volume
- viability of KPC mouse pancreatic cancer cell lines [2]: sensitive; also recorded: Dose-dependent effects
- glucose uptake (intracellular labelled 2-deoxy-D-glucose) [3]: elevated uptake of glucose; also recorded: enhanced glucose and cholesterol uptake
- abundance of free cholesterol (Filipin staining) [4]: increased the abundance of free cholesterol; also recorded: enhanced glucose and cholesterol uptake
- expression of genes involved in lipogenesis / cholesterol biosynthesis [5]: inducing expression of genes involved in lipogenesis
- cell growth [6]: reduced cell growth

SMILES: Nc1ccn([C@@H]2O[C@H](CO)[C@@H](O)C2(F)F)c(=O)n1 [gemcitabine, 4-amino-1-[(2R,4R,5R)-3,3-difluoro-4-hydroxy-5-(hydroxymethyl)oxolan-2-yl]pyrimidin-2-one]
- tumor volume (MIAPaCa-2 xenograft): reduced tumor weight and volume
- tumor weight (MIAPaCa-2 xenograft): reduced tumor weight
- 1-year survival rate [7]: 21%
- median overall survival (OS) [7]: 6 months

SMILES: NCCc1ccc(O)c(O)c1 [dopamine]
- cancer cell viability (pituitary tumor cells): decreased significantly
